Article PMC12736008, “New Dimethylpyridine-3-Carboxamide Derivatives as MMP-13 Inhibitors with Anticancer Activity” (Molecules, 2025)

What was measured:
HSA/Dansyl-L-Gly = target: T1, HSA/Dansyl-L-Gly (Homo sapiens, UniProt P02768); assay: Marker displacement from HSA/Dansyl-L-Gly complex (Sudlow site I); format: binding; details: room temperature
T1 construct: purchased Sigma-Aldrich
Description: The human serum albumin (HSA) has two main drug-binding sites, known as Sudlow site I and Sudlow site II, located in subdomains IIA and IIIA of the albumin structure, respectively. […] In addition to these main sites, HSA has the capacity to bind ligands in other regions, including histidine residues, the N-terminus of the molecule, and metal binding sites. However, it is most common for drugs to bind to Sudlow I and Sudlow II. In order to study binding to a specific site in the protein, fluorescent markers, Dansyl-L-Gly and Dansyl-L-Phe, were used. The Dansyl-L-Gly interacts with Sudllow I, while the Dansyl-L-Phe prefers Sudllow II [41, 42]. The tested compounds were added in portions to the solution that contained the HSA/marker complex, and the fluorescence spectrum was recorded (Figure 11 and Figure 12). The percentage of compound exchange in the albumin pocket was calculated using Equation (6):(6) displacement % =F^0 −F /F^0 where F^0 is the maximum fluorescence intensity of HSA/Dansyl-L-Gly complex, and F is the maximum fluorescence intensity after a quencher addition. The calculated data were collected in Table 6. It was observed that only compound 3b displaces from the Dansyl-L-Gly binding site, as indicated by a decrease in fluorescence intensity with increasing concentration of this derivative, but only to approximately 8%. […] The band intensity increases slightly, which may be due to the dilution of the solution. […] This, in turn, results in a reduction in the number of collisions and reabsorptions, thereby enhancing the efficiency of fluorescence emission. […]
Solutions of Dansyl-L-Phe (Chem-Norm Biotech, Wuhan, China) and Dansyl-L-Gly (Sigma-Aldrich, Tokyo, Japan) were prepared by dissolving them separately in ethanol to a final concentration of 1·10^−3 mol/dm^3. […] Spectra were recorded at room temperature using a Cary Eclipse 500 spectrophotometer (Agilent, Santa Clara, CA, USA) with an excitation wavelength of 350 nm, and an emission range of 410–670 nm and the PMT voltages were (V) 700 and 650 for Dansyl-L-Gly and Dansyl-L-Phe, respectively. […]

A375 (melanoma) cells = assay: MTT assay, A375; format: cell-based, human; details: for reduction in cancer cell viability / anticancer potential (A375): MTT, 24 h, 0.004 mM to 0.5 mM
Description: (§1) As mentioned earlier, MMP-13 is overexpressed and functionally significant in various cancers, including melanoma and colorectal carcinoma. For instance, high MMP-13 levels have been correlated with metastasis and poor survival in melanoma patients. In colorectal cancer, elevated MMP-13 activity has been observed in tumors compared to normal mucosa, and its expression is associated with a worse prognosis. Based on computational studies, four out of the eleven designed compounds showing the most promising predicted activity against MMP-13 were selected for biological evaluation. For the MTT assay, NHDF cells were used as the healthy reference cell line, while A375 (melanoma) and HT-29 (colorectal adenocarcinoma cancer) cell lines were chosen as cancer models.
(§2) Experiments were conducted using two cancer cell lines and, as a control, a normal human dermal fibroblasts (NHDF; ATCC PCS-201-012). The A375 cell line (human melanoma, ATCC CRL-1619), and HT-29 cell line (human colorectal adenocarcinoma, ATCC HTB-38) were cultured in DMEM (Dulbecco’s Modified Eagle Medium, Institute of Immunology and Experimental Therapy (IITD), Wrocław, Poland) supplemented with 1% antibiotics (10 U/mL penicillin and 10 µg/mL streptomycin, Sigma-Aldrich, St Louis, MO, USA), 1% glutamine (Sigma-Aldrich, St Louis, MO, USA) and 10% fetal bovine serum (FBS, Gibco, Grand Island, NY, USA). For NHDF cultures, α-MEM (α-Minimum Essentials Medium, Institute of Immunology and Experimental Therapy (IITD), Poland) was used with the same supplement combination as for the cancer cell lines. All cells were maintained in a humidified incubator (INCO 105, Memmert GmbH, Schwabach, Germany) at 37 °C with 5% CO2 and 95% humidity. Cells were passaged routinely by trypsinization (twice a week). For the MTT (3-(4,5-simethylthiazol-2,5-diphenyltetrazolinum bromide), Sigma, St. Louis, MO, USA) assay, cells were used after 2–4 passages, when they reached approximately 80% confluence.
(§3) All tested compounds were dissolved in DMSO to obtain stock solutions with a final concentration of 50 mM (3a, 3b, 3e), 40 mM (3f, 3g, 3i, 3j), and 35 mM (3h, 3k). […] In the next step, 10 µL of each stock solution was added to 990 µL of supplemented medium.
(§4) The MTT assay was performed in 96-well plates, with a seeding density of 1 × 10^4 cells per well. All cell lines were incubated for 24 h in their respective media: α-MEM for (NHDF cells) and DMEM for (A375 and HT-29) cells. After incubation, the medium was removed and replaced with fresh medium containing the tested compounds at concentrations ranging from 0.004 mM to 0.5 mM. […] Absorbance was measured spectrophotometrically at a wavelength of 570 nm using a BioTek SYNERGY H1 microplate reader (Agilent, Santa Clara, CA, USA).

HSA/Dansyl-L-Phe = target: T2, HSA/Dansyl-L-Phe (Homo sapiens, UniProt P02768); assay: Marker displacement from HSA/Dansyl-L-Phe complex (Sudlow site II); format: binding; details: room temperature
T2 construct: purchased Sigma-Aldrich
T2 sequence (P02768 25-609): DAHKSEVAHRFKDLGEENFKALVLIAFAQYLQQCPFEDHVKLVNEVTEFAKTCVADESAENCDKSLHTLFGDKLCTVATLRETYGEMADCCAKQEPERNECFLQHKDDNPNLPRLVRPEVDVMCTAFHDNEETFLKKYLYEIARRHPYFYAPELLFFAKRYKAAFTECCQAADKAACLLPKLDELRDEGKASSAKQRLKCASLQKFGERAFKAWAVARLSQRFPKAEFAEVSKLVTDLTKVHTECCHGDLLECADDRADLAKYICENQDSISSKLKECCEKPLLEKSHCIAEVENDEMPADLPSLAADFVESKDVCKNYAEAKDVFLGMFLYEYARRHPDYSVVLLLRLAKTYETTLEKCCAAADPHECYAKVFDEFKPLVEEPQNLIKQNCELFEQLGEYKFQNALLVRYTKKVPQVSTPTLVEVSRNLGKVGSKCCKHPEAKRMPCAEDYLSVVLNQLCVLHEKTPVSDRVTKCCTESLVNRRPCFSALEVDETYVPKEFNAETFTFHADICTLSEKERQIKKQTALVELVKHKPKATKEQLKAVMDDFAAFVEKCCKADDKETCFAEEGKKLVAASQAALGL
Description: The human serum albumin (HSA) has two main drug-binding sites, known as Sudlow site I and Sudlow site II, located in subdomains IIA and IIIA of the albumin structure, respectively. […] In addition to these main sites, HSA has the capacity to bind ligands in other regions, including histidine residues, the N-terminus of the molecule, and metal binding sites. However, it is most common for drugs to bind to Sudlow I and Sudlow II. In order to study binding to a specific site in the protein, fluorescent markers, Dansyl-L-Gly and Dansyl-L-Phe, were used. The Dansyl-L-Gly interacts with Sudllow I, while the Dansyl-L-Phe prefers Sudllow II [41, 42]. The tested compounds were added in portions to the solution that contained the HSA/marker complex, and the fluorescence spectrum was recorded (Figure 11 and Figure 12). The percentage of compound exchange in the albumin pocket was calculated using Equation (6):(6) displacement % =F^0 −F /F^0 where F^0 is the maximum fluorescence intensity of HSA/Dansyl-L-Gly complex, and F is the maximum fluorescence intensity after a quencher addition. The calculated data were collected in Table 6. It was observed that only compound 3b displaces from the Dansyl-L-Gly binding site, as indicated by a decrease in fluorescence intensity with increasing concentration of this derivative, but only to approximately 8%. […] The band intensity increases slightly, which may be due to the dilution of the solution. The dilution of the sample leads to an increase in the average distance between molecules. This, in turn, results in a reduction in the number of collisions and reabsorptions, thereby enhancing the efficiency of fluorescence emission. Nevertheless, the binding site for Dansyl-L-Phe was displaced by all of the tested derivatives.
Solutions of Dansyl-L-Phe (Chem-Norm Biotech, Wuhan, China) and Dansyl-L-Gly (Sigma-Aldrich, Tokyo, Japan) were prepared by dissolving them separately in ethanol to a final concentration of 1·10^−3 mol/dm^3. The HSA solution was prepared in the same way as for titration binding measurements. Spectra were recorded at room temperature using a Cary Eclipse 500 spectrophotometer (Agilent, Santa Clara, CA, USA) with an excitation wavelength of 350 nm, and an emission range of 410–670 nm and the PMT voltages were (V) 700 and 650 for Dansyl-L-Gly and Dansyl-L-Phe, respectively. The complexes were prepared by mixing the HSA solution with the dansylated markers, and then adding the solution of the studied compounds from a ratio of 0 to 11.0 molar at the same increments, using the same protocol as in the spectroscopy studies.

[1] = tested on: HT-29 (colorectal adenocarcinoma) cells; assay: MTT assay, HT-29; format: cell-based, human; details: for reduction in cancer cell viability / anticancer potential (HT-29): MTT, 24 h, 0.004 mM to 0.5 mM
Description: as §1, §2, §3, §4

[2] = Solubility on preparing DMSO stock solutions; format: physicochemical; details: dissolved to 30 mM
Description: as §3

MTT assay, NHDF = format: cell-based, human; details: human, NHDF cells (normal human dermal fibroblasts), 0.004 mM to 0.5 mM
Description: as §1, §2, §3, §4

T1 sequence (P02768 25-609): as above

For `Cc1cc(C)c(C(=O)NCC(=O)NCc2ccccc2)c(S)n1` [Compound 3g, 4,6-dimethyl-N-[2-(benzylamino)-2-oxoethyl]-2-sulfanylpyridine-3-carboxamide], the “Marker Displacement Percentage HSA/Dansyl-L-Gly” value (HSA/Dansyl-L-Gly) was “no quenching occurs at all”, the “reduction in cancer cell viability / anticancer potential (A375)” value (A375 (melanoma) cells) was “only moderate anticancer potential” and the “Marker Displacement Percentage HSA/Dansyl-L-Gly” value (HSA/Dansyl-L-Phe) was 11.1%. The “reduction in cancer cell viability / anticancer potential (HT-29)” value [1] was “only moderate anticancer potential”.

In the case of `Cc1cc(C)c(C(=O)NCC(=O)NCc2ccc(Cl)cc2)c(S)n1` [Compound 3c, N-{2-[(4-chlorobenzyl)amino]-2-oxoethyl}-4,6-dimethyl-2-sulfanylpyridine-3-carboxamide], the “Marker Displacement Percentage HSA/Dansyl-L-Gly” value (HSA/Dansyl-L-Gly) is reported as “no quenching occurs at all”, the solubility [2] is reported as “low solubility” and the “reduction in cancer cell viability / anticancer potential (A375)” value (A375 (melanoma) cells) is reported as “strongest reduction in cancer cell viability”. For the same molecule, the “Marker Displacement Percentage HSA/Dansyl-L-Gly” value (HSA/Dansyl-L-Phe) was 18.5% and the “reduction in cancer cell viability / anticancer potential (HT-29)” value [1] was “strongest reduction in cancer cell viability”.

For `Cc1cc(C)c(C(=O)NCC(=O)NCc2ccccc2Cl)c(S)n1` [Compound 3d, N-{2-[(2-chlorobenzyl)amino]-2-oxoethyl}-4,6-dimethyl-2-sulfanylpyridine-3-carboxamide], the “Marker Displacement Percentage HSA/Dansyl-L-Gly” value (HSA/Dansyl-L-Gly) was “no quenching occurs at all”, the solubility [2] was “low solubility” and the viability at 24 h (MTT assay, NHDF) was over 63%. The “reduction in cancer cell viability / anticancer potential (A375)” value (A375 (melanoma) cells) was “strongest reduction in cancer cell viability”, the “Marker Displacement Percentage HSA/Dansyl-L-Gly” value (HSA/Dansyl-L-Phe) was 10.6% and the “reduction in cancer cell viability / anticancer potential (HT-29)” value [1] was “strongest reduction in cancer cell viability”.

For `Cc1cc(C)c(C(=O)NCC(=O)NCc2ccc(Oc3ccccc3)cc2)c(S)n1` [Compound 3b, 4,6-dimethyl-N-{2-[(4-phenoxybenzyl)amino]-2-oxoethyl}-2-sulfanylpyridine-3-carboxamide], the “selectivity ratio A375:NHDF” value (A375 (melanoma) cells; at a concentration of 0.5 mM) was 0.56, the “Marker Displacement Percentage HSA/Dansyl-L-Gly” value (HSA/Dansyl-L-Phe) was 35.2% and the “selectivity ratio HT-29:NHDF” value ([1]; at a concentration of 0.5 mM) was 0.43.
